From the supplement of paper PMC10307832

Legend:
Assay in all cases: relative viability (nuclei count vs DMSO), 5 days (fraction); higher = more cells survive
Omipalisib + Bortezomib = compound: COc1ncc(-c2ccc3nccc(-c4ccnnc4)c3c2)cc1NS(=O)(=O)c1ccc(F)cc1F [Omipalisib] + CC(C)C[C@H](NC(=O)[C@H](Cc1ccccc1)NC(=O)c1cnccn1)B(O)O [Bortezomib] (partner 0.002 µM)
In short: (§1)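 Medians of duplicate plates are given as relative viability. That measure is the nuclei count in treated wells divided by the count in vehicle wells. Counts were taken on 4× images of lung cancer cell lines in 1536-well plates, 5 days after pin-tool dosing the day after seeding with one drug alone or a fixed anchor-drug dose plus five library-drug doses (not always all listed) in √10 steps.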

Omipalisib + Foretinib = compound: COc1ncc(-c2ccc3nccc(-c4ccnnc4)c3c2)cc1NS(=O)(=O)c1ccc(F)cc1F [Omipalisib] + COc1cc2c(Oc3ccc(NC(=O)C4(C(=O)Nc5ccc(F)cc5)CC4)cc3F)ccnc2cc1OCCCN1CCOCC1 [Foretinib] (partner 0.25 µM)
In short: as §1

Omipalisib + Lapatinib = compound: COc1ncc(-c2ccc3nccc(-c4ccnnc4)c3c2)cc1NS(=O)(=O)c1ccc(F)cc1F [Omipalisib] + CS(=O)(=O)CCNCc1ccc(-c2ccc3ncnc(Nc4ccc(OCc5cccc(F)c5)c(Cl)c4)c3c2)o1 [Lapatinib] (partner 2 µM)
In short: as §1

Omipalisib + Dasatinib = compound: COc1ncc(-c2ccc3nccc(-c4ccnnc4)c3c2)cc1NS(=O)(=O)c1ccc(F)cc1F [Omipalisib] + Cc1nc(Nc2ncc(C(=O)Nc3c(C)cccc3Cl)s2)cc(N2CCN(CCO)CC2)n1 [Dasatinib] (partner 0.075 µM)
In short: as §1

Omipalisib + Pictilisib = compound: COc1ncc(-c2ccc3nccc(-c4ccnnc4)c3c2)cc1NS(=O)(=O)c1ccc(F)cc1F [Omipalisib] + CS(=O)(=O)N1CCN(Cc2cc3nc(-c4cccc5[nH]ncc45)nc(N4CCOCC4)c3s2)CC1 [Pictilisib] (partner 1 µM)
In short: as §1

Omipalisib + OSI-027 = compound: COc1ncc(-c2ccc3nccc(-c4ccnnc4)c3c2)cc1NS(=O)(=O)c1ccc(F)cc1F [Omipalisib] + COc1cccc2cc(-c3nc([C@H]4CC[C@H](C(=O)O)CC4)n4ncnc(N)c34)[nH]c12 [OSI-027] (partner 0.5 µM)
In short: as §1

Cell Line | relative viability (Omipalisib + Bortezomib; first compound 0.0003 µM) | relative viability (Omipalisib + Bortezomib; first compound 0.003 µM) | relative viability (Omipalisib + Bortezomib; first compound 0.03 µM) | relative viability (Omipalisib + Foretinib; first compound 0.0003 µM) | relative viability (Omipalisib + Foretinib; first compound 0.003 µM) | relative viability (Omipalisib + Foretinib; first compound 0.03 µM) | relative viability (Omipalisib + Lapatinib; first compound 0.0003 µM) | relative viability (Omipalisib + Lapatinib; first compound 0.003 µM) | relative viability (Omipalisib + Lapatinib; first compound 0.03 µM) | relative viability (Omipalisib + Dasatinib; first compound 0.0003 µM) | relative viability (Omipalisib + Dasatinib; first compound 0.003 µM) | relative viability (Omipalisib + Dasatinib; first compound 0.03 µM) | relative viability (Omipalisib + Pictilisib; first compound 0.0003 µM) | relative viability (Omipalisib + Pictilisib; first compound 0.003 µM) | relative viability (Omipalisib + Pictilisib; first compound 0.03 µM) | relative viability (Omipalisib + OSI-027; first compound 0.0003 µM) | relative viability (Omipalisib + OSI-027; first compound 0.003 µM) | relative viability (Omipalisib + OSI-027; first compound 0.03 µM)
NCI-H1437 | 0.463 | 0.465 | 0.227 | 1.26 | 1.35 | 0.918 | 0.795 | 0.55 | 0.308 | 0.411 | 0.323 | 0.202 | 0.436 | 0.308 | 0.319 | 0.854 | 0.639 | 0.323
LC-2-ad | 1.11 | 0.978 | 0.888 | 0.961 | 0.743 | 0.411 | 0.933 | 0.784 | 0.745 | 0.503 | 0.47 | 0.168 | 0.517 | 0.582 | 0.238 | 0.732 | 0.501 | 0.439
NCI-H460 | 1.07 | 0.824 | 0.109 | 1.04 | 1.01 | 0.347 | 0.594 | 0.845 | 0.151 | 0.385 | 0.288 | 0.0813 | 0.419 | 0.254 | 0.316 | 0.661 | 0.258 | 0.0847
201T | 1.13 | 1.11 | 0.777 | 1.12 | 0.864 | 0.308 | 1.02 | 0.935 | 0.936 | 0.582 | 0.413 | 0.323 | 0.706 | 0.668 | 0.554 | 0.786 | 0.494 | 0.398
HCC-78 | 0.338 | 0.32 | 0.252 | 0.436 | 0.433 | 0.266 | 0.329 | 0.567 | 0.386 | 0.359 | 0.313 | 0.219 | 0.198 | 0.183 | 0.189 | 0.37 | 0.35 | 0.288
NCI-H596 | 1.04 | 0.691 | 0.386 | 0.559 | 0.485 | 0.304 | 0.972 | 0.833 | 0.421 | 0.618 | 0.44 | 0.295 | 0.43 | 0.386 | 0.412 | 0.726 | 0.352 | 0.309
HCC-366 | 0.918 | 0.707 | 0.168 | 0.849 | 0.772 | 0.189 | 0.898 | 0.496 | 0.186 | 0.575 | 0.2 | 0.179 | 0.137 | 0.1 | 0.0924 | 1.18 | 0.35 | 0.203
NCI-H520 | 0.465 | 0.254 | 0.171 | 0.742 | 0.441 | 0.226 | 0.778 | 0.581 | 0.22 | 0.159 | 0.162 | 0.131 | 0.243 | 0.212 | 0.251 | 0.235 | 0.214 | 0.203
